What was measured:
[1] = test system: acute cortical slices from a patient with FCD; assay: Recurrent epileptiform discharges (LFP) in human acute slice from surgically resected FCD; format: cell-based; conditions: 5 μM UBP 310, 50 μM 4-AP and 5 μM gabazine
Experimental: Cortical slices from patients with drug-resistant epilepsy Acute and cultured slices at 350 μm thickness were prepared from surgical cortical resections from patient diagnosed with drug-resistant epilepsy (AP-HM, Hôpital de La Timone, Marseille, France; CHU Pellegrin, Bordeaux, France) as previously described (Le Duigou et al., 2018). At DIV 1, a subset of cultured slices were transduced with AAV9 with antigrik2 miRNA applied directly to slices (4E+10 per slice).
Prior to recordings, rat or human acute slices were transferred in oxygenated normal cerebrospinal fluid (ACSF) at room temperature (>1 hour). The ACSF contained (in mM, Sigma-Aldrich): 126 NaCl, 3.5 KCl, 1.2NaH2PO4, 26 NaHCO3, 1.3 MgCl2, 2.0 CaCl2 , and 10 glucose (pH 7.4). For electrophysiological recordings, cortical slices were individually transferred to a recording chamber maintained at 30-32 °C and continuously perfused (2-3 ml/min) with oxygenated (95% O2 and 5% CO2) ACSF containing either 5 μM gabazine, or 5 μM gabazine and 50 μM 4-AP in rats and human tissues, respectively. Spontaneous recurrent epileptiform discharges were recorded as local field potentials as previously described (Peret et al., 2014).
All statistical analyses were performed using Prism 6 (Graphpad). Normality of the data distributions was systematically tested using a Shapiro-Wilk test. […]

[2] = test system: acute cortical slices from a patient with FCD; assay: Field EPSP (fEPSP) evoked by electrical stimulation in human acute slice from surgically resected FCD; format: cell-based; conditions: 5 μM UBP 310
[3] = test system: neocortical acute slices from rats with FCDII; assay: Spontaneous recurrent epileptiform discharges (LFP) in acute neocortical slices from adult FCD rats; format: cell-based, rat (Wistar); conditions: 5 μM gabazine
Experimental: Our study takes advantage of a rat model of FCD developed in our laboratory (Pelorosso et al 2019) by in utero electroporation of a gain of function mutation of mTOR (MTOR c.6644C>T p.S2215F), that has been found in different FCD patients (Baldassari et al 2019). Rats were housed in cages with ad libitum food/water, controlled temperature (21-23 °C) and 12:12 h light-dark cycle (light period from 8 A.M. to 8 P.M.).
Plasmid electroporations were performed with either wild type (WT) or mutant mTOR expression vectors (pCAG-MTOR WT-IRES-GFP or pCAG-MTOR p.S2215F, respectively, 3.0 μg/μL each), or with non-recombinant vector (pCAG-IRES-GFP; 0.5 μg/μL). All constructs were generated by Genscript (Piscataway, NJ) as described before (Pelorosso et al 2019) and were checked by Sanger sequencing.
Timed pregnant Wistar rats (Janvier Labs, Le Genest-Saint-Isle, France) received buprenorphine at 0.03 mg/kg and were anesthetized with sevoflurane (4%) 30 min later. […]
Prior to recordings, rat or human acute slices were transferred in oxygenated normal cerebrospinal fluid (ACSF) at room temperature (>1 hour). […] Spontaneous recurrent epileptiform discharges were recorded as local field potentials as previously described (Peret et al., 2014). […]

[4] = acute cortical slices from a patient with FCD
[5] = human acute slice from resected FCD, in words

Structure (SMILES): Cc1cn(C[C@H](N)C(=O)O)c(=O)n(Cc2ccsc2C(=O)O)c1=O [UBP 310]
- reduction of the frequency of spontaneous recurrent epileptiform discharges [1, 4]: around 70%
- reduction of the number of epileptiform discharges [1, 5]: strong reduction
- reduction of the amplitude of evoked field EPSP (fEPSP) [2, 4]: approximately 50%
- fEPSP evoked by electrical stimulation [2, 5]: strongly reduced
- reduction in the number of epileptiform discharges ([3]; 5 μM UBP 310, bath application, acute neocortical slice from adult FCD rat, n=7 slices from 4 FCD rats, Wilcoxon p=0.0156): around 46%
- reduction in the frequency of spontaneous recurrent epileptiform discharges ([3]; 5 μM UBP 310, neocortical acute slices from rats with FCDII): around 46%

Reference: patent US20260325519A1, “METHOD AND PHARMACEUTICAL COMPOSITION FOR USE IN THE TREATMENT OF FOCAL CORTICAL DYSPLASIA” (priority 2023, published 2026)
